Test results reported in patent US20240325398A1, “COMBINATION THERAPIES” (Infinity Pharmaceuticals, Inc., priority 2014, published 2024).

What was measured:
HBL-1 = test: Combination study, ATPLite 72 h, dose matrix (Synergy Score, CI50)
GRANTA-519 = test: as above; conditions: combination with Compound 1
Experimental: Cells are thawed from a liquid nitrogen preserved state. Once cells have been expanded and divide at their expected doubling times, screening begins. Cells are seeded in growth media in either black 1536-well or 384-well tissue culture treated plates. Cells are then equilibrated in assay plates via centrifugation and placed in incubators attached to the Dosing Modules at 37° C. for 24 hours before treatment. […] These Tzero (To) plates are read using ultra-sensitive luminescence on Envision plate readers (Perkin Elmer). Treated assay plates are incubated with compound for 72 hours. After 72 hours, plates are developed for endpoint analysis using ATPLite. All data points are collected via automated processes, quality controlled and analyzed using Zalicus software.
where T is treated cell count and V is untreated (vehicle) cell count (at 72 hours). I ranges from 0% (when T=V) to 100% (when T=0). […] The measure of effect in the experiment can be the inhibition of cellular response relative to the untreated level (vehicle alone). […] The inhibition ranges from 0% at the untreated level to 100% when T=0. Inhibition levels are negative for agents that actually increase levels. Other effect measures, such as an activity ratio r=T/V may be more appropriate for some assays. When activity ratios (e.g, fold increase over stimulated control) are being used, the effect can be measured using an induction 1=ln(T/V). With this definition, all effect expressions are the same as for inhibition.
Growth Inhibition (GI) is used as a measure of cell viability. […] A GI reading of 100% represents complete growth inhibition—T72 compound-treated and T0 vehicle signals are matched. […] A GI reading of 200% represents complete death of all cells in the culture well. Compounds reaching an activity plateau of GI 200% are considered cytotoxic. GI is calculated by applying the following test and equation:
Combination analysis data were collected in a 6×6 dose matrix. Synergy is calculated by comparing a combination's response to those of its single compound, against the drug-with-itself dose-additive reference model. Deviations from dose additivity may be assessed visually on an isobologram or numerically with a Combination Index (CI). […] Additive effect is CI=1.0. […] Antagonistic effect is CI>1.0.
To measure combination effects in excess of Loewe additivity, a scalar measure to characterize the strength of synergistic interaction termed the Synergy Score is devised. The Synergy Score is calculated as:
The fractional inhibition for each component agent and combination point in the matrix is calculated relative to the median of all vehicle-treated control wells. The Synergy Score equation integrates the experimentally-observed activity volume at each point in the matrix in excess of a model surface numerically derived from the activity of the component agents using the Loewe model for additivity. Additional terms in the Synergy Score equation (above) are used to normalize for various dilution factors used for individual agents and to allow for comparison of synergy scores across an entire experiment. The inclusion of positive inhibition gating or an Idata multiplier removes noise near the zero effect level, and biases results for synergistic interactions at that occur at high activity levels.
Loewe Volume (Loewe Vol) is used to assess the overall magnitude of the combination interaction in excess of the Loewe additivity model. Loewe Volume is particularly useful when distinguishing synergistic increases in a phenotypic activity (positive Loewe Volume) versus synergistic antagonisms (negative Loewe Volume). […] This model defines additivity as a non-synergistic combination interaction where the combination dose matrix surface should be indistinguishable from either drug crossed with itself.

RPMI-8226 = test: as above; conditions: combination with Compound 1
TMD8 = test: as above; conditions: TMD8
[1] = as above; conditions: combination with Compound 1; OPM-2
OMP-2 = test: as above; conditions: combination with Compound 1; OPM-2
HH = test: as above; assay type: cell-based; conditions: combination with Compound 1
Experimental: The method is described as follows.
Additive effect is CI=1.0. […] Antagonistic effect is CI>1.0.
The Synergy Score is calculated as: […]

[2] = test system: Compound 1-resistant SU-DHL-4 clones; test: CTG (Cell Titer Glo) IC50, Compound 1-resistant clones; assay type: cell-based; conditions: Compound 1-resistant clones versus control cells, FIG. 10
Experimental: (§1) The DMSO stock for each compound was diluted to 5 mM or 1 mM with DMSO. A 1:1000 dilution was performed into the plated cells (10 uL) for a final of 1 uM or 5 uM (final DMSO […]). Cells were counted 2 times per week and cell densities were adjusted back to 2.5×10^5 c/mL as needed. Media/Compound was replenished as needed and Media/Compound was replaced 1× per week. Compound treatment lasted for 28 days. Compound was washed out for 1 week and cells were subsequently used in assays to determine resistance after 4 weeks of treatment.
(§2) The cell line pool was treated with compound for an additional 28 days prior to subcloning. Altogether, the cell line pool was under selective pressure for a total of 8 weeks.
Cell lines were subcloned at 3, 1, and 0.3 cells per well (cpw). 1:10 of conditioned medium (CM) was included in medium in addition to corresponding DMSO control or compound. During subcloning optimization experiments, the SU-DHL-4 cell line could only be subcloned in the presence of 1:10 conditioned medium. […]
(§3) All cell lines subcloned grew out. […] Once expanded in a 24 well plate, the 12 clones per cell line were evaluated for viability by flow using the Dead_Live kit (Invitrogen #L23101).
Clones for parent, DMSO and Compound 1-R cell lines were selected based on their P1 vs P2 distribution determined by FSCH vs SSCH scatter plot. […]

DoHH2 tumor = assay type: in vivo
Experimental: In particular, tolerability of the combination treatment was assessed in DoHH2 tumor bearing CB17.SCID female mice (a follicular lymphoma subcutaneous model). […] Plasma samples were collected on day 7 (trough, 1, 2, 4, and 6 h post dose) and on day 14 (2 h post final dose).

[3] = test system: ibrutinib-resistant SU-DHL-4 clones; test: CTG (Cell Titer Glo) IC50, ibrutinib-resistant clones; assay type: cell-based; conditions: ibrutinib clones 2B.3, 5C.3, 10B.3, 11D.3, 11G.3
Experimental: as §1, §2
Cell lines were subcloned at 3, 1, and 0.3 cells per well (cpw). 1:10 of conditioned medium (CM) was included in medium in addition to corresponding DMSO control or compound. During subcloning optimization experiments, the SU-DHL-4 cell line could only be subcloned in the presence of 1:10 conditioned medium. Conditioned medium (CM) was collected 4 days after splitting the parent cell line and when cells were approximately 90% confluent. Cells were spun down and the supernatant (CM) was collected down. […]
as §3

SU-DHL-6-epst = test: Combination study of Compound 1 or CAL-101 and a second therapeutic agent (Synergy Score, CI50); assay type: cell-based
[4] = combination with CAL-101, Example 2
[5] = combination with Cmpd 1, Example 2
[6] = combination with Compound 1, 72 h

For C[C@@H]1C[C@H]2[C@@H]3CCC4=CC(=O)C=C[C@]4(C)[C@@]3(F)[C@@H](O)C[C@]2(C)[C@@]1(O)C(=O)CO [dexamethasone, (8S,9R,10S,11S,13S,14S,16R,17R)-9-Fluoro-11,17-dihydroxy-17-(2-hydroxyacetyl)-10,13,16-trimethyl-6,7,8,9,10,11,12,13,14,15,16,17-dodecahydro-3H-cyclopenta[a]phenanthren-3-one], the CI50 growth inhibition (HBL-1; [4]) was “T (T=0.5 to <0.7)”, the CI50 inhibition (HBL-1; [4]) was “S (S=0.01 to <0.5)” and the “Synergy Score growth inhibition” value (HBL-1; [4]) was “A2 (A2=1 to <3)”. The “Synergy Score inhibition” value (HBL-1; [4]) was “A2 (A2=1 to <3)”, the CI50 growth inhibition (HBL-1; [5]) was “T (T=0.5 to <0.7)” and the CI50 inhibition (HBL-1; [5]) was “U (U=0.7 to <1)”. For the same compound, the “Synergy Score growth inhibition” value (HBL-1; [5]) was “A2 (A2=1 to <3)”, the “Synergy Score inhibition” value (HBL-1; [5]) was “A2 (A2=1 to <3)” and the CI50 growth inhibition (HBL-1; [6]) was “S (S=0.01 to <0.5)”. The CI50 inhibition (HBL-1; [6]) was “U (U=0.7 to <1)”, the “Synergy Score growth inhibition” value (HBL-1; [6]) was “A3 (A3=>3)” and the “Synergy Score inhibition” value (HBL-1; [6]) was “A2 (A2=1 to <3)”. For the same compound, the CI50 growth inhibition (GRANTA-519) was “S (S=0.01 to <0.5)”, the “Synergy Score growth inhibition” value (GRANTA-519) was “A3 (A3=>3)” and the “Synergy Score inhibition” value (GRANTA-519) was “A1 (A1=0.0001 to <1)”. The CI50 growth inhibition (RPMI-8226) was “S (S=0.01 to <0.5)”, the CI50 inhibition (RPMI-8226) was “U (U=0.7 to <1)” and the “Synergy Score growth inhibition” value (RPMI-8226) was “A3 (A3=>3)”. The “Synergy Score inhibition” value (RPMI-8226) was “A2 (A2=1 to <3)”, the CI50 growth inhibition (TMD8; [4]) was “S (S=0.01 to <0.5)” and the CI50 inhibition (TMD8; [4]) was “S (S=0.01 to <0.5)”. For the same compound, the “Synergy Score growth inhibition” value (TMD8; [4]) was “A3 (A3=>3)”, the “Synergy Score inhibition” value (TMD8; [4]) was “A3 (A3=>3)” and the CI50 growth inhibition (TMD8; [5]) was “T (T=0.5 to <0.7)”. For the same compound, the CI50 inhibition (TMD8; [5]) was “S (S=0.01 to <0.5)”, the “Synergy Score growth inhibition” value (TMD8; [5]) was “A3 (A3=>3)” and the “Synergy Score inhibition” value (TMD8; [5]) was “A3 (A3=>3)”. The CI50 growth inhibition (TMD8; [6]) was “U (U=0.7 to <1)”, the CI50 inhibition (TMD8; [6]) was “S (S=0.01 to <0.5)” and the “Synergy Score growth inhibition” value (TMD8; [6]) was “A3 (A3=>3)”. The “Synergy Score inhibition” value (TMD8; [6]) was “A3 (A3=>3)”, the CI50 growth inhibition [1] was “S (S=0.01 to <0.5)” and the CI50 inhibition (OMP-2) was “U (U=0.7 to <1)”. For the same compound, the “Synergy Score growth inhibition” value (OMP-2) was “A2 (A2=1 to <3)”, the “Synergy Score inhibition” value (OMP-2) was “A1 (A1=0.0001 to <1)” and the CI50 growth inhibition (HH) was “S (S=0.01 to <0.5)”. For the same compound, the CI50 inhibition (HH) was “S (S=0.01 to <0.5)”, the “Synergy Score growth inhibition” value (HH) was “A3 (A3=>3)” and the “Synergy Score inhibition” value (HH) was “A3 (A3=>3)”.

For C[C@H](Nc1ncnc2[nH]cnc12)c1cc2cccc(Cl)c2c(=O)n1-c1ccccc1 [Compound 1, (S)-3-(1-((9H-purin-6-yl)amino)ethyl)-8-chloro-2-phenylisoquinolin-1(2H)-one], the “average IC50 for inhibition of the resistant cells versus control cells” value [2] was “higher”, the tumor volume (DoHH2 tumor; Compound 1 50 mg/kg QD PO plus dexamethasone 5 mg/kg Q3D IP, after 12 days, versus vehicle, Compound 1 alone or dexamethasone alone, FIG. 8) was “lower” and the tumor growth inhibition (DoHH2 tumor; Compound 1 50 mg/kg QD in combination with dexamethasone 5 mg/kg Q3D IP, compared to either monotherapy) was “greater tumor growth inhibition”. The “tolerability of the combination (body weight)” value (DoHH2 tumor; co-administration of dexamethasone and Compound 1 in mice) was “tolerable”, the “cross-resistance of ibrutinib-resistant clones” value [3] was “no cross-resistance” and the CI50 growth inhibition (SU-DHL-6-epst; combination with Dexamethasone) was “T (T=0.5 to <0.7)”. For the same compound, the CI50 inhibition (SU-DHL-6-epst; combination with Dexamethasone) was “T (T=0.5 to <0.7)”, the “Synergy Score growth inhibition” value (SU-DHL-6-epst; combination with Dexamethasone) was “A3 (A3=>3)” and the “Synergy Score inhibition” value (SU-DHL-6-epst; combination with Dexamethasone) was “A2 (A2=1 to <3)”. The CI50 growth inhibition (SU-DHL-6-epst; combination with LEE011) was “S (S=0.01 to <0.5)”, the “Synergy Score growth inhibition” value (SU-DHL-6-epst; combination with LEE011) was “A2 (A2=1 to <3)” and the “Synergy Score inhibition” value (SU-DHL-6-epst; combination with LEE011) was “A1 (A1=0.0001 to <1)”. For the same compound, the CI50 growth inhibition (SU-DHL-6-epst; combination with PCI-32765) was “S (S=0.01 to <0.5)”, the CI50 inhibition (SU-DHL-6-epst; combination with PCI-32765) was “S (S=0.01 to <0.5)” and the “Synergy Score growth inhibition” value (SU-DHL-6-epst; combination with PCI-32765) was “A3 (A3=>3)”. The “Synergy Score inhibition” value (SU-DHL-6-epst; combination with PCI-32765) was “A2 (A2=1 to <3)”, the CI50 growth inhibition (SU-DHL-6-epst; combination with PD-0332991) was “S (S=0.01 to <0.5)” and the CI50 inhibition (SU-DHL-6-epst; combination with PD-0332991) was “S (S=0.01 to <0.5)”. The “Synergy Score growth inhibition” value (SU-DHL-6-epst; combination with PD-0332991) was “A2 (A2=1 to <3)” and the “Synergy Score inhibition” value (SU-DHL-6-epst; combination with PD-0332991) was “A2 (A2=1 to <3)”.
